Key:
ethanolic narcosis = assay: Ethanolic narcosis period (righting reflex); type: in vivo, Hann.-Wistar rats; settings: for Ethanolic narcosis period (x ± S.E. %), related to control: 1 h before 3.5 g/kg ethanol i.p., n=10
Procedure: The change of ethanolic narcosis period was tested on Hann.-Wistar rats of both sexes weighing 160 to 180 g. each, which were fasted for 16 hours prior to treatment. Groups of ten were treated with various doses of a test compound of the formula (I), orally. One hour after treatment the rats were administered a 3.5 g./kg. dose of ethanol intraperitoneally. The narcosis period of the animals was measured from the elapse of the righting reflex until a spontaneous correction of the body position. The average of the narcosis period and the percentage difference related to the control were calculated. The control group was treated with placebo and a […]. dose of ethanol. Control narcosis period: 99.6±6.55 (x±S.E.) min.

[1] = tested on: ataxia induced by ethanol; assay: Ataxia induced by ethanol, rotarod test; type: in vivo, BALB/c mice
Procedure: Previously trained and selected BALB/c mice weighing 16 to 18 g. each were treated with a 40 mg./kg. dose of the compound to be tested orally, one hour before the intraperitoneal administration of a 2.5 g./kg. dose of ethanol. The number of the animals remaining on the rods 60, 90 and 120 minutes, resp., after treatment with ethanol was determined. The animals having an intact coordination could stay at the rod as long as 120 minutes. The test was carried out on groups of ten.

in vivo = settings: rat, oral, male Hann.-Wistar rats, 14 days observation, probit analysis
Procedure: The acute toxicity of the compounds according to the invention was tested on male Hann.-Wistar rats each weighing 160 to 180 g. The animals were treated with various doses of the test compounds orally, and the dose resulting in the perish of 50% of the animals was calculated by probite analysis from the %-age of the perished animals.

[2] = tested on: ethanolic locomotor activity; assay: Locomotor activity change by ethanol (Animex BSE motimeter); type: in vivo, BALB/c mice; settings: n=15
Procedure: The change of ethanolic locomotor activity was tested on BALB/c mice of both sexes, weighing 16 to 18 g. each. Groups of 15 were treated with a 40 mg./kg. oral dose of the test compound 60 minutes prior to the administration of placebo and 2 g./kg. ethanol, respectively (i.p.).
The control animals were treated with placebo. The locomotor activity of the animals was measured for two hours with an Animex BSE motimeter.

[3] = tested on: alcoholic intoxication, narcosis; settings: Sprince et al. 1974; Nagasawa et al. 1975; cited from earlier work
[4] = tested on: ethanolic locomotoric hyperactivity; settings: mice, Carlsson et al. 1972, cited from earlier work

CCC(O)(c1cccc(C(F)(F)F)c1)c1ccc(O)cc1O (stereo not drawn) [A, 4-[1-(3-trifluoromethylphenyl)-1-hydroxypropyl]-resorcin]
Ethanolic narcosis period (x ± S.E. %), related to control (ethanolic narcosis; 0.3 mg/kg orally): 70 ± 11.4% | Ethanolic narcosis period (x ± S.E. %), related to control (ethanolic narcosis; 1.0 mg/kg orally): 60 ± 9.2% | Ethanolic narcosis period (x ± S.E. %), related to control (ethanolic narcosis; 5.0 mg/kg orally): 36 ± 4.0% | Ethanolic narcosis period (x ± S.E. %), related to control (ethanolic narcosis; 20.0 mg/kg orally): 30 ± 5.5% | Animals remaining on the rotating rod (%) ([1]; 40 mg/kg oral + 2500 mg/kg ethanol i.p., 60 min): 40% | Animals remaining on the rotating rod (%) ([1]; 40 mg/kg oral + 2500 mg/kg ethanol i.p., 90 min): 60% | Animals remaining on the rotating rod (%) ([1]; 40 mg/kg oral + 2500 mg/kg ethanol i.p., 120 min): 100% | Animals remaining on the rotating rod (%) ([1]; 40 mg/kg oral, no ethanol, 60 min): 100% | Animals remaining on the rotating rod (%) ([1]; 40 mg/kg oral, no ethanol, 90 min): 100% | Animals remaining on the rotating rod (%) ([1]; 40 mg/kg oral, no ethanol, 120 min): 100% | LD50 at 336 h (in vivo): 1250 mg/kg | Total locomotor motion/2 hours in % of the control ([2]; 40 mg/kg oral + placebo (no ethanol)): 110 ± 10.3% | Total locomotor motion/2 hours in % of the control ([2]; 40 mg/kg oral, 60 min before 2000 mg/kg ethanol i.p.): 98 ± 9.5%

N[C@@H](CS)C(=O)O [L-cysteine, reference compound]
Alcoholic intoxication, narcosis duration [3]: shortened | Ethanolic narcosis period (x ± S.E. %), related to control (ethanolic narcosis; 500.0 mg/kg orally): 63 ± 4.2% | Dose dependence of effect on ethanolic narcosis period (ethanolic narcosis; rats, oral): dose-dependent, unlike that of L-cysteine

CC(N)(Cc1ccc(O)cc1)C(=O)O (stereo not drawn) [α-Methyl-para-tyrosine]
Spontaneous locomotoric activity ([4]; same dose range): decreases the spontaneous locomotoric activity | Ethanolic locomotoric hyperactivity [4]: normalizes the ethanolic locomotoric hyperactivity

From US4510338A, “Resorcin derivatives, process for their preparation and pharmaceutical compositions containing them” (priority 1982, dated 1985)
